Experimental data as given in patent US11390629B2, “1,5-disubstituted 1,2,3-triazoles are inhibitors of Rac/Cdc42 GTPases” (UNIVERSITY OF PUERTO RICO, priority 2016, dated 2022).
“And” between values parts separate entries of the source, which are not always exact repeats. Identical values can stand only once. “Also recorded” adds a separate entry of the source.

Assays:
NCI-N87 cells = test: MTT viability assay, NCI-N87 gastric cancer cells; format: cell-based, human; settings: 250 nM
Excerpt: FIGS. 8A, 8B. The effect of MBQ-167 on survival and PAK activity in NCI-N87 gastric cancer cells.

[1] = test system: caspase-3/7 activity in MDA-MB-231 cells; test: Caspase-Glo 3/7 apoptosis assay; format: cell-based, human; settings: 0-1000 nM, 24 h, MDA-MB-231 and GFP-HER2-BM
Experimental: (§1) Effect of MBQ-167 on cell survival.
To evaluate whether the cell cycle arrest was accompanied by an increase in apoptosis, the activity of the effector caspases3/7 in whole cell populations (both attached and detached). […] To determine whether MBQ-167 induces anoikis, the relative levels of caspase-3/7 activities were analyzed in the attached and detached MDA-MB-231 cell populations following 24 h at 250 nM MBQ-167.
Apoptosis was measured using a Caspase-Glo3/7 Luminescence Assay Kit as per manufacturer's instructions (Promega, Corp., Madison, Wis., USA). Following treatment of equal numbers of cells with vehicle or MBQ-167 for 24 h, Caspase-3/7 Glo reagent was added and incubated at room temperature for 60 min. Caspase-3/7 activities were determined by quantifying luminescence.

MDA-MB-231 cells [2] = test: Bright field microscopy of cell polarity, rounding and detachment, MDA-MB-231; format: cell-based, human
Experimental: (§2) FIGS. 2A, 2B, 2C. Breast cancer cell phenotype following MBQ-167 treatment.
(§3) Human breast cancer cells were visualized by bright field microscopy following MBQ-167 treatment. At ≥100 nM, starting at six hours, MBQ-167 induced a loss of polarity in metastatic breast cancer cells. […] On the other hand, non-cancer mammary epithelial MCF10A and epithelial breast cancer MCF-7 cells were resistant to MBQ-167 and remained polarized and attached to each other and the substratum (FIG. 2A).
FIG. 2A; FIG. 2B. […] At ≥100 nM, starting at six hours MBQ-167 induces a loss of polarity and detachment from the substratum in MDA-MB-231 metastatic breast cancer cells but not in MCF-7 non-metastatic human breast cancer cells. 250 nM MBQ-167 results in ˜70% of the cells losing polarity and assuming a rounded phenotype. Higher concentrations of MBQ-167, i.e. 500 nM for 24 h results in a ˜90% loss in cell polarity and detaches from the substratum.

MCF10A and MCF-7 cells = test: Bright field cell phenotype, epithelial cells; format: cell-based, human; settings: up to 500 nM
Experimental: as §2, §3

[3] = test system: GFP-HER2-BM mammary fat pad tumors; test: Mammary fat pad tumor growth, GFP-HER2-BM cells in nude mice; format: in vivo; settings: for reduction in tumor growth: 65 days; for Optimal % Change in Tumor Size (% T/C): day 65, control = 100; for Time in Days for Doubling of Tumor size, 2^1: control 8; for Time in Days for Doubling of Tumor size, 2^2: control 14.5; for Time in Days for Doubling of Tumor size, 2^3: control 27.7; for Time in Days for Doubling of Tumor size, 2^4: control 33.3
Experimental: FIGS. 6A-1, 6A-2, 6B, 6C, 6D, 6E. In-vivo efficacy of MBQ-167 in HER2-type breast cancer.
To test the effect of MBQ-167 on mammary tumor progression, nude mice were used to establish mammary fatpad tumors from GFP-HER2-BM cells. One week following mammary tumor establishment, the mice were treated 3× a week with 0, 1, or 10 mg/kg BW MBQ-167 by i.p. for 65 days.
Mice were treated with vehicle (12.5% ethanol, 12.5% Cremophor (Sigma-Aldrich, St. Louis, Mo.), and 75% 1×PBS pH 7.4), or 1 or 10 mg/kg BW MBQ-167 by i.p. injection in a 100 μL volume 3× a wk. Treatments continued until sacrifice at day 65.

[4] = test system: p38-MAPK, p42/44 MAPK, Akt; test: Western blot of MAPK and Akt signaling, MDA-MB-231; format: cell-based, human; settings: 250 nM, 24 h
Excerpt: FIGS. 13A, 13B. MAPK and Akt signaling in MDA-MB-231 cells. […] Representative western blots of N=3 are shown.

MDA-MB-231 cells [5] = test: Cell cycle progression by flow cytometry (PI), MDA-MB-231; format: cell-based, human; settings: 250 nM; listed as MBQ-167
Experimental: as §1
MDA-MB-231 cells were incubated with 0 or 250 nM MBQ-167 for 48 h and all cells (detached and attached) were stained with PI, as in (27). Cell cycle stage was analyzed using a four-color flow cytometer (FACSCalibur, BD Biosciences, San Jose, Calif.). A total of 20,000 events were analyzed for each sample. List-mode files were collected using Cell Quest software 3.3 and analyzed using the Flow Jo software vX.0.7 (BD Biosciences, San Jose, Calif.).

GFP-MDA-MB-231 cells = test: Annexin V-Cy3-18 staining; format: cell-based, human; settings: 250 or 500 nM, 6 h
Experimental: FIG. 14. Annexin V staining in response to MBQ-167. GFP-MDA-MB-231 cells growing on coverslips were treated with vehicle or MBQ-167 at 250 or 500 nM for 6 h; Cells were fixed in formaldehyde and stained with Annexin V-Cy3-18; Representative fluorescence micrographs are shown; Arrows indicate red fluorescent Annexin V staining at the membranes of apoptotic cells.
Apoptotic cells were detected by fluorescence microscopy of Annexin V-Cy3-18 stained cells as per manufacturer's instructions (Sigma-Aldrich, St Louis, Mo., USA). Briefly, GFP-MDA-MB-231 cells grown on coverslips were treated with vehicle, or 250 or 500 nM MBQ-167 for 6 h and stained with Annexin V-Cy3-18 in binding buffer (10 mM HEPES/NaOH, pH 7.5, 0.14 M NaCl, 2.5 mM CaCl2) for 15 min at room temperature. Coverslips were washed in binding buffer and fixed with 3.7% paraformaldehyde prior to fluorescence microscopy. Images were digitally acquired from an Olympus inverted fluorescence microscope.

Cdc42 = Cdc42 (Homo sapiens, UniProt P60953); test: G-LISA Cdc42 activity, GFP-HER2-BM cells; format: cell-based; set-up: endogenous in cells; host or cells: MDA-MB-231; settings: 250 nM, 24 h
Cdc42, sequence (P60953 whole entry): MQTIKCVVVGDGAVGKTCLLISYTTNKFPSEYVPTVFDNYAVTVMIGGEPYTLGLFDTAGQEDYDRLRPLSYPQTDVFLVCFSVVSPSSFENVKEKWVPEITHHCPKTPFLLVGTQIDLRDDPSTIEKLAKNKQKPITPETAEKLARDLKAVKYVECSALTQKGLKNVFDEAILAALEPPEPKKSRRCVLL

[6] = test system: MCF10A mammary epithelial cells; test: Cell viability assay (CellTiter 96 / MTT), MCF10A; settings: 120 h
Bcl-2, Bcl-xL, Mcl-1 = test: Western blot of pro-survival proteins, MDA-MB-231; settings: 250 nM, 24 h

## CCn1c2ccccc2c2cc(-n3nncc3-c3ccccc3)ccc21 [I-1, 9-ethyl-3-(5-phenyl-1H-1,2,3-triazol-1-yl)-9H-carbazole]
NCI-N87 cells; 24 h, listed as MBQ-167
  reduction of cell viability: 55%
NCI-N87 cells; Homo sapiens, NCI-N87, 24 h, read-out: reduction of cell viability
  cytotoxicity at […]: 50%
[1]
  caspase-3/7 activity in whole cell populations: dose-dependent increase
MDA-MB-231 cells [2]; 250 nM
  cells losing polarity and assuming a rounded phenotype: ~70%
MDA-MB-231 cells [2]; 500 nM, 24 h, listed as MBQ-167
  cell rounding / loss of polarity and detachment from the substratum: ~90% and ~95%
MDA-MB-231 cells [2]; starting at six hours
  concentration inducing loss of polarity: ≥ 100 nM
MCF10A and MCF-7 cells
  cell rounding and detachment phenotype: resistant
[3]; 1.0 mg/kg BW i.p. 3x a week
  reduction in tumor growth: ~80%
[3]; 1 mg/kg BW i.p. 3x a week
  Optimal % Change in Tumor Size (% T/C): 58%
[3]; 1 mg/kg BW
  Time in Days for Doubling of Tumor size, 2^1: 10 days
  Time in Days for Doubling of Tumor size, 2^2: 30 days
  Time in Days for Doubling of Tumor size, 2^3: 57 days
  Time in Days for Doubling of Tumor size, 2^4: never reached
[3]; 10 mg/kg BW i.p. 3x a week
  reduction in tumor growth: ~95%
  Optimal % Change in Tumor Size (% T/C): 9%
[3]; 10 mg/kg BW, by 2 months
  reduction of mammary fat pad tumor size: 91%
[3]; 10 mg/kg BW
  Time in Days for Doubling of Tumor size, 2^1: 11 days
  Time in Days for Doubling of Tumor size, 2^2: 30 days
  Time in Days for Doubling of Tumor size, 2^3: never reached
  Time in Days for Doubling of Tumor size, 2^4: never reached
[3]; immunocompromised mice
  inhibition of mammary tumor growth and metastasis: ~90%
[4]
  effect on p38-MAPK, p42/44 MAPK and Akt activities: did not affect
MDA-MB-231 cells [5]
  effect on cell cycle: significantly arrested the cell cycle of MDA-MB-231 cells in the G2/M phase; also recorded: G2/M phase arrest
GFP-MDA-MB-231 cells
  Annexin V staining: increased Annexin V staining
Cdc42
  effect on Cdc42 activity: inhibits
[6]; Homo sapiens, MCF-10A
  GI50: 350 nM
[6]; at the GI50 concentrations of the metastatic cells
  effect on viability of MCF7 and MCF-10A cells: does not affect the viability
Bcl-2, Bcl-xL, Mcl-1
  expression of pro-survival proteins Bcl-2, Bcl-xL, Mcl-1: significant decrease
